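Cells were grown in 96-well plates and exposed to each compound for 48 hours at five concentrations; endpoints were interpolated linearly between bracketing concentrations, or set to the highest concentration if not reached. The concentration for 50% growth inhibition is given as GI50.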 Calls of active or inactive are those of the source. No stated cut-off is given here; in the data, active = GI50 up to about 1.1 µM and inactive = higher.
Columns and labels:
Experiment in all cases: growth of human tumour cells (NCI), 48 h
[1] = system: T47D
[2] = system: SNB-78
[3] = system: RPMI-8226
[4] = system: CAKI-1
[5] = system: SF-295
[6] = system: CCRF-CEM
[7] = system: MCF7
[8] = system: HT-29
[9] = system: OVCAR-5
[10] = system: SK-MEL-5
[11] = system: UO-31
[12] = system: SK-OV-3
[13] = system: NCI-H460
[14] = system: SK-MEL-2
[15] = system: HOP-92
[16] = system: LOX IMVI
[17] = system: HCC 2998
[18] = system: M14
[19] = system: ACHN
[20] = system: PC-3

Measured: GI50

O=C1N[C@H]2[C@H](O)[C@H](O)[C@@H](O)[C@H](O)[C@@H]2c2cc3c(c(O)c21)OCO3 [PANCRATISTATIN]
active: [1] 0.0288 µM | [2] 0.0452 µM | [3] 0.0778 µM | [4] 0.0331 µM | [5] 0.0469 µM | [6] 0.0324 µM | [7] 0.0369 µM | [8] 0.0439 µM | [9] 0.144 µM | [10] 0.0272 µM | [11] 0.0875 µM | [12] 0.0483 µM | [13] 0.0457 µM | [14] 0.0336 µM | [15] 0.0316 µM | [16] 0.0307 µM | [17] 0.0403 µM | [18] 0.262 µM | [19] 0.673 µM

CCN(CC)CC(O)CNc1ccc(NCC2CO2)c2c1C(=O)c1ccccc1C2=O (stereo not drawn)
inactive: [9] 2.3 µM | [12] 1.86 µM | [15] 1.75 µM | [17] 1.19 µM
active: [2] 0.398 µM | [3] 0.614 µM | [4] 0.619 µM | [5] 1.05 µM | [7] 0.0109 µM | [8] 0.553 µM | [10] 0.447 µM | [11] 0.594 µM | [13] 0.695 µM | [20] 0.74 µM | [14] 0.226 µM | [16] < 0.01 µM | [18] 0.199 µM | [19] 0.144 µM

CCCCCCCCC/C=C1\CCC(CN2CCOCC2)C1=O (stereo not drawn)
active: [3] 0.303 µM | [7] 1.03 µM | [16] 0.855 µM
inactive: [2] 4.29 µM | [4] 4.6 µM | [5] 7.48 µM | [6] 1.8 µM | [8] 2.88 µM | [9] 16.9 µM | [10] 6.65 µM | [11] 4.95 µM | [12] 17.3 µM | [13] 7.26 µM | [20] 1.79 µM | [14] 5.51 µM | [15] 3.38 µM | [17] 6.9 µM | [18] 3.23 µM | [19] 4.92 µM

Cc1cc2c(cc1C)[n+]([O-])c(C(=O)CC(=O)C(=O)Nc1ccccc1C(C)C)c(C)[n+]2[O-]
inactive: [2] > 100 µM | [3] > 100 µM | [4] > 100 µM | [5] > 100 µM | [6] > 100 µM | [8] > 100 µM | [9] > 100 µM | [10] > 100 µM | [11] > 100 µM | [12] > 100 µM | [13] > 100 µM | [14] > 100 µM | [15] > 100 µM | [16] > 100 µM | [17] > 100 µM | [18] > 100 µM | [19] > 100 µM

OC(C1CO1)C(O)C1CO1 (stereo not drawn)
inactive: [1] 17 µM | [2] 85.9 µM | [3] 69 µM | [6] 3.71 µM | [7] 11.7 µM | [8] 63.5 µM | [9] 77.1 µM | [10] 29.1 µM | [11] 48.5 µM | [12] 43.1 µM | [13] 3.33 µM | [20] 39.8 µM | [14] 61.1 µM | [15] > 75.5 µM | [16] 15.7 µM | [17] 44.6 µM | [18] 18.6 µM | [19] 4.04 µM

O=C(N/C=C1\C(=O)Oc2ccccc2C1=O)Nc1ccccc1
inactive: [2] 30.1 µM | [3] > 100 µM | [4] 15.1 µM | [5] > 100 µM | [6] > 100 µM | [8] > 100 µM | [9] 61.5 µM | [10] 25.8 µM | [11] 28.3 µM | [12] 31.6 µM | [13] 63.8 µM | [14] 18.5 µM | [15] 25.8 µM | [16] 42.4 µM | [17] 58.1 µM | [18] 52.8 µM | [19] 27.7 µM
